Patent US10222368B2 (priority 2012, dated 2019)

Assays:
Aβ42-α7nAChR complex = test: Lymphocyte co-immunoprecipitation / Western blot; format: cell-based, human
Description: To prepare lymphocytes, 7 ml of venous blood was collected into an EDTA-containing collecting tube or S-monovette (Sarstedt, Newton, N.C.). […] The lymphocytes were washed twice by mixing with 6 ml oxygenated Kreb's-Ringer followed by centrifugation at 250×g for 10 minutes and re-suspension. […] To store lymphocytes, the lymphocyte pellet was resuspended in 250 μl ice-cold oxygenated Kreb's-Ringer containing 10% glycerol, and stored at −20° C. for 1 hour before storage at −80° C.
In the case that frozen lymphocyte samples were used, a lymphocyte suspension was gradually thawed by storing at −20° C. for 1 hour after removal from −80° C. and then at thawed at 4° C.
The incubation was terminated by adding 1 ml ice-cold Ca^2+-free Kreb's-Ringer containing 0.5 mM EGTA/0.1 mM EDTA, protease and phosphatase inhibitors followed by centrifugation. […]
The membranes were then washed 3 times (1 minutes each) with 0.1% Tween-20 containing PBS and then once with distilled water for 1 minutes. The immunoreactivity was detected by a chemiluminutesescent method (Supersignal chemiluminutesescent reagents−Pierce/Thermo), and visualized by immediate exposure to X-ray film for 10-30 seconds (depending on the intensity of the signal). Specific protein bands were quantified by densitometric scanning (GS-800 calibrated densitometer, Bio-Rad Laboratories). […]

[1] = tested on: cytokines IL-6, TNFα and IL-1β; test: ICV Aβ42 infusion mouse model, cytokine fluorescence ELISA; format: in vivo; conditions: ICV Aβ42-infused mice; 10 mg/kg C0105 i.p.
Description: FIG. 6 illustrates that Compound C0105 treatment of mice nearly abolishes Aβ42-induced cytokine production. […] Compound C0105 almost abolished the production of these 3 cytokines. n=7 or n=8.

α7nAChR-FLNA complex = molecular target: T1, α7nAChR-FLNA complex (Homo sapiens, UniProt P21333); test: α7nAChR/FLNA ELISA of lymphocyte lysates (Example 7); format: cell-based; conditions: for Optical Density α7nAChR/FLNA (OD450), average: AD lymphocytes + 10 μM C0105, four replicate studies, background subtracted
T1 construct: To determine the levels of FLNA-α7nAChR, FLNA-TLR4 and α7nAChR-Aβ42 complexes in the lymphocytes; endogenous in cells; host or cells: lymphocytes from venous blood of AD patients and control subjects (ex vivo)
Description: The capture antibody was the mouse anti-human Filamin A SC-17749 (Santa Cruz Biotechnology), and rabbit anti-human α7nAChR SC-5544 (Santa Cruz Biotechnology Santa Cruz Biotechnology) as the detection antibody. The assays were carried out in Santa Cruz Flat Bottom Plates.
PBS buffer used was 1×PBS (Mg-, and Ca-free) from Thermo Scientific, whereas PBST was 1×PBS+0.05% Tween®-20.
Coating buffer was prepared by dissolving 1.59 g of Na2CO3 in 0.9 L distilled H2O, to which was added 0.1 g NaN3 and 3.93 g of NaHCO3. The pH value was adjusted to 9.6, and the volume adjusted to 1 L with additional distilled H2O. Santa Cruz BSA blocking buffer supplemented with 1% BSA (sc-293965).
The HRP Detection Reagent (TMB) was prepared using 1-Step Ultra TMB-ELISA, (Cat#34028; Thermo Scientific). Standard protocol using 100 μl of the TMB substrate solution per each microplate well, followed by 10-15 minute incubation (or until color develops) and stopping reaction by adding 100 μl of 2 M sulfuric acid to each well. Absorbance (OD450) measured at 450 nm. Santa Cruz BSA blocking buffer was used supplemented with 1% BSA (SC-293965), and assays were carried out using a Molecular Devices Spectramax™ PLUS ELISA plate reader at 450 nm.
AD patient samples: 20 microtubes (labeled #1-#20; 100 ul volume each) with AD patients lymphocytes were received frozen on dry ice. Samples were kept at −20° C. freezer for 1 hour, following thawing at 4° C. […] Ice-cold PBS (300 μl) was added and entire contents were centrifuged to remove insoluble debris.
Normal patient sample was prepared by following procedure: 8 mL of venous blood was collected into cat#362761 BD Vacutainer™ CPT tube (cell preparation tube with sodium citrate) and following manufacturer's recommended protocol for white blood cells isolation (including two centrifugation/PBS wash steps). […] Ice-cold PBS (300 μl) was added and entire content was centrifuged to remove insoluble debris, resulting in “NP sample”.
Compound C0105 treatment was performed using AD patient white blood cells resuspended in 1×PBS and treated with: a) 10 μM Compound C0105 (final concentration), and b) control (PBS only) for 60 minutes at 37° C. (total volume is 400 μl of each sample).
Anti-Filamin A antibody (SC-17749) was diluted in Coating Buffer (at dilution ratio of 1:30) and 100 μl sample loaded per well and incubated 2.5 hours at room temperature (RT). The plate was covered with adhesive cover to prevent evaporation. Followed by washing of the microtiter plate with 150 μl of Blocking Buffer (supplemented with 1% BSA) and added 100 μl of Blocking Buffer to the wells for 30 minutes at RT.
AD samples (AD patients lymphocytes, as described above) were used to generate serial dilution series samples (dilution performed in PBS) and 100 μl sample loaded per well and incubated 1 hour at RT (total protein concentration is indicated as established by Bradford assay, as described above). The plate was covered with adhesive cover to prevent evaporation, followed by washing each well two times with 160 μl PBST Buffer.
After washing of the microtiter plate with washing buffer, 100 μl of α7nAChR primary antibody (SC-5544) were added per well (1:50 dilution ratio) in 1×PBS and incubated for 1 hour at RT.

α7nAChR/FLNA complexes = molecular target: T2, α7nAChR/FLNA complexes (Homo sapiens, UniProt P21333); test: Protein A and Protein G capture plate assay in lymphocytes; format: cell-based; conditions: 1 nM
T2 construct: To determine the levels of FLNA-α7nAChR, FLNA-TLR4 and α7nAChR-Aβ42 complexes in the lymphocytes; endogenous in cells; host or cells: lymphocytes from venous blood of AD patients and control subjects (ex vivo)
Description: (§1) Each sample was assessed in duplicate.

α7nAChR/Aβ42 complexes = test: as above; format: cell-based, human; conditions: 1 nM
Description: as §1

α7nAChR-FLNA association = molecular target: T3, α7nAChR-FLNA association (Rattus norvegicus, UniProt A0A8I5ZV49); test: Rat frontal cortical synaptosomes treated with Aβ42, anti-FLNA immunoprecipitation / Western blot; format: cell-based; conditions: 1 or 10 nM compound, simultaneously or 10 min prior to 0.1 μM Aβ42
T3 construct: from tissue; host or cells: rat frontal cortical synaptosomes
Description: The α7nAChR-FLNA complexes in the solubilized synaptosomes were immunoprecipitated with immobilized anti-FLNA and the α7nAChR and FLNA levels in the anti-FLNA immunoprecipitates determined by Western blotting (FIG. 14A) and quantified by densitometry for illustrative compounds (FIG. 14B). n=3. […] The letter designation “M” that accompanies many of the “C-series” compounds is omitted from FIG. 14, the remaining figures and most discussions of the figures and compounds hereinafter for ease in expression. Structural formulas of the compounds used in this and the other figures are provided hereinafter.
The complexes in the solubilized synaptosomes, and α7nAChR, TLR4 and FLNA levels in the anti-FLNA immunoprecipitates were determined by Western blotting (FIG. 15A) in which numerals outside of and to the left of the blots are as discussed before. Amounts present in the blots were quantified by densitometry (FIG. 15B). […] Structural formulas of the compounds used in this and the other figures are provided hereinafter.

TLR4/FLNA complexes = TLR4/FLNA complexes (Homo sapiens, UniProt P21333); test: Protein A and Protein G capture plate assay in lymphocytes; conditions: 1 nM
[2] = molecular target: FLNA association with α7nAChR (Mus musculus, UniProt Q8BTM8); test: ICV Aβ42 infusion mouse model, synaptosome co-immunoprecipitation; conditions: 10 mg/kg C0105 i.p. twice daily, 2 weeks; prefrontal cortex and hippocampus
[3] = molecular target: FLNA association with TLR4 (Mus musculus, UniProt Q8BTM8); test: as above; conditions: 10 mg/kg C0105 i.p. twice daily, 2 weeks; prefrontal cortex and hippocampus

T1 sequence (P21333 2-2647 limits assumed, one chain of several): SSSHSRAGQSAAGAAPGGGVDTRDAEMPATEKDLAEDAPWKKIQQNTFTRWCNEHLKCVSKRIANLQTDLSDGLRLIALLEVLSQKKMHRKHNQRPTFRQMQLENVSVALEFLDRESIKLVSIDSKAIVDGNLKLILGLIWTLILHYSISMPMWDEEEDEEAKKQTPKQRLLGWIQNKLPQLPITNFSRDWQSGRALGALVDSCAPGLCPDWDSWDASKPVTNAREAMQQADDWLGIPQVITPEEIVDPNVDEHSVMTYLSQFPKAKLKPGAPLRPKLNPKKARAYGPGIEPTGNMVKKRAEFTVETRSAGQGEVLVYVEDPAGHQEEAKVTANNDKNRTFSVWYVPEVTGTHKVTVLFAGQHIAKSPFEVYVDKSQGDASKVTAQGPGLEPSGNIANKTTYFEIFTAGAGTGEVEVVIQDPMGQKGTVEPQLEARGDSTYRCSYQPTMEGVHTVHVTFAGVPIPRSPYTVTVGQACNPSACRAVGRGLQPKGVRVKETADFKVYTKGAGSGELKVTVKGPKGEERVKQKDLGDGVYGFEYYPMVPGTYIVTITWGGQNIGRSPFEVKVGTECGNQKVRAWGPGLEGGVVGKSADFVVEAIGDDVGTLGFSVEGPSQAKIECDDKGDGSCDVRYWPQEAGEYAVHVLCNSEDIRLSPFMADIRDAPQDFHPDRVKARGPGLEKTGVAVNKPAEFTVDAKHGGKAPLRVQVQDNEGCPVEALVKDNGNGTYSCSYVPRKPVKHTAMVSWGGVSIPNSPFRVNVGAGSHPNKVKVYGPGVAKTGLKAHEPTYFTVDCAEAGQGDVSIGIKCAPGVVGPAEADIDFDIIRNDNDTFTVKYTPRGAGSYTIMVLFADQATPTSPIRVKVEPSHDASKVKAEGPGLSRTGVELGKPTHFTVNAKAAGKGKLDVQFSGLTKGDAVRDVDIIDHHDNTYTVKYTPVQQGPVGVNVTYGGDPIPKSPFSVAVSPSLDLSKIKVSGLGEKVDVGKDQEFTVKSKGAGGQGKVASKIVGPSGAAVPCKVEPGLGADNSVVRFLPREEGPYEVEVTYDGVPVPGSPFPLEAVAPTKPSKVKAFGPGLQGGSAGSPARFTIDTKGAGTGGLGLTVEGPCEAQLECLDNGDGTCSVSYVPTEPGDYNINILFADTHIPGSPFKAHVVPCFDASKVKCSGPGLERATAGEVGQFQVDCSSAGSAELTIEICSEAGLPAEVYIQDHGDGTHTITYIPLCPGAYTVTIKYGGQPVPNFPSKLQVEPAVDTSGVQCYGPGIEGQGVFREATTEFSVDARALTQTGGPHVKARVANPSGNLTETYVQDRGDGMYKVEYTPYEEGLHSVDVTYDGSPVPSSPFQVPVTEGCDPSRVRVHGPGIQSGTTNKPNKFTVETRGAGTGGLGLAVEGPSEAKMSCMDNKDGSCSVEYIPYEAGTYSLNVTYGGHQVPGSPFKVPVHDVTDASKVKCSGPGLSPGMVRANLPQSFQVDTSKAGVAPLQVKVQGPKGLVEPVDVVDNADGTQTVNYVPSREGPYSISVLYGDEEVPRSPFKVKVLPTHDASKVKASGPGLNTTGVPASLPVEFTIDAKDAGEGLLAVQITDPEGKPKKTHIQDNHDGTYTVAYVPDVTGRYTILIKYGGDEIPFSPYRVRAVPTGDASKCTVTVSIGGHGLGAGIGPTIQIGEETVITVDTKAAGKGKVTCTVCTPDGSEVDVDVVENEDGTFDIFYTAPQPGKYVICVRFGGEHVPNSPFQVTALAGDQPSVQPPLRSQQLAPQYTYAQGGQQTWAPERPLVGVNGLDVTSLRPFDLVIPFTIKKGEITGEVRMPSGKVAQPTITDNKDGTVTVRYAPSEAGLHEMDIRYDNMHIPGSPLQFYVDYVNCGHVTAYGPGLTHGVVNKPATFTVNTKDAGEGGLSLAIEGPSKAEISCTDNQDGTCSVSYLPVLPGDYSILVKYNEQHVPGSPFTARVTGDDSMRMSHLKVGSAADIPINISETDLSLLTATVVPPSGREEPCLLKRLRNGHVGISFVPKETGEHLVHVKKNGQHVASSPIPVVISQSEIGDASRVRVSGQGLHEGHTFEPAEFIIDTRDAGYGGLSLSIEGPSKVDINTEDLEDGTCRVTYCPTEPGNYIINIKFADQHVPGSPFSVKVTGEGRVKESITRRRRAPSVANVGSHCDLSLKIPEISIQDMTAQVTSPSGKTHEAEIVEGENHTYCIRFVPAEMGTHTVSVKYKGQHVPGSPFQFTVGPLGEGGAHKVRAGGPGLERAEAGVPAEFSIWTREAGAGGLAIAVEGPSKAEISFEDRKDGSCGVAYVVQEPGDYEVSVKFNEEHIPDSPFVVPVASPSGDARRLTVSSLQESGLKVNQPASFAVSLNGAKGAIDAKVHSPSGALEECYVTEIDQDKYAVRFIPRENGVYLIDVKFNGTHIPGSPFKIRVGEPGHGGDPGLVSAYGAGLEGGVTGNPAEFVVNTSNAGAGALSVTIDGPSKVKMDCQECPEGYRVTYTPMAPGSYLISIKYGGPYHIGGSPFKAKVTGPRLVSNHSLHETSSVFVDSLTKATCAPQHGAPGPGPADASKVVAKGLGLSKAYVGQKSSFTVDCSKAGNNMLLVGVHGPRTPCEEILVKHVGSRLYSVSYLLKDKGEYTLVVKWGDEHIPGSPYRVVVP
T2 sequence (P21333 2-2647 limits assumed, one chain of several): as above
Sequence of TLR4/FLNA complexes (P21333 2-2647 limits assumed, one chain of several): as above

`CN1CCC2(CC1)NCC(=O)N2Cc1ccccc1` [Compound C0105] was tested, and the “Reduction of α7nAChR/Aβ42 complex level (% inhibition)” value (Aβ42-α7nAChR complex; 1 nM C0105, 30 min, lymphocytes of 20 AD subjects) was “approximately 50%”, the “Effect on α7nAChR/Aβ42 complex level (in words)” value (Aβ42-α7nAChR complex; 1 nM C0105, lymphocytes of 10 YCI controls) was “no discernible effect” and the “Effect on Aβ42-induced IL-6 production (in words)” value [1] was “completely abolished”. For the same compound, the “Suppression of IL-1β level” value [1] was 80%, the “Suppression of TNF-α level” value [1] was 86% and the “Effect on amount of α7nAChR associated with FLNA (in words)” value (α7nAChR-FLNA complex; 10 μM, AD lymphocytes) was “significant reduction”. The “Effect on amount of α7nAChR/FLNA complex (in words)” value (α7nAChR-FLNA complex; 10 μM, YCI lymphocyte preparation) was “substantially no difference”, the “Optical Density α7nAChR/FLNA (OD450), average” value (shortened to “Optical Density α7nAChR/FLNA”) (α7nAChR-FLNA complex; 1.25 (mg) lysate per well) was 0.1572 and the “Optical Density α7nAChR/FLNA” value (α7nAChR-FLNA complex; 2.5 (mg) lysate per well) was 0.2261. For the same compound, the “Optical Density α7nAChR/FLNA” value (α7nAChR-FLNA complex; 5 (mg) lysate per well) was 0.291, the “Optical Density α7nAChR/FLNA” value (α7nAChR-FLNA complex; 10 (mg) lysate per well) was 0.3349 and the “Optical Density α7nAChR/FLNA” value (α7nAChR-FLNA complex; 20 (mg) lysate per well) was 0.4504. For the same compound, the “Decrease in amount of α7nAChR FLNA complexes” value (α7nAChR/FLNA complexes; AD lymphocytes) was “approximately 50%”, the “Response of α7nAChR/FLNA complexes (in words)” value (α7nAChR/FLNA complexes; YCI lymphocytes) was “essentially non-responsive” and the “Decrease in amount of α7nAChR/Aβ42 complexes” value (α7nAChR/Aβ42 complexes; AD lymphocytes) was “approximately 50%”. The “Response of α7nAChR/Aβ42 complexes (in words)” value (α7nAChR/Aβ42 complexes; YCI lymphocytes) was “essentially non-responsive”, the “Effect on Aβ42-induced α7nAChR-FLNA association (in words)” value (α7nAChR-FLNA association) was “reduce α7nAChR-FLNA association” and the “Decrease in amount of TLR4 FLNA complexes” value (TLR4/FLNA complexes; AD lymphocytes) was “approximately 50%”. For the same compound, the “Response of TLR4/FLNA complexes (in words)” value (TLR4/FLNA complexes; YCI lymphocytes) was “essentially non-responsive”, the “Effect on Aβ42-induced FLNA association with α7nAChR (in words)” value [2] was “reduced Aβ42-induced increases in FLNA associations” and the “Effect on Aβ42-induced FLNA association with TLR4 (in words)” value [3] was “reduced Aβ42-induced increases in FLNA associations”.
